We go through 1 compound from ChEMBL document CHEMBL4145686, “Discovery of a Potent and Selective Steroidal Glucocorticoid Receptor Antagonist (ORIC-101)” (J Med Chem, 2018).

pIC50: −log10 of the molar value.

The target of one series is T1, androgen receptor (AR) (Homo sapiens, UniProt P10275).
T1 sequence (P10275 whole entry): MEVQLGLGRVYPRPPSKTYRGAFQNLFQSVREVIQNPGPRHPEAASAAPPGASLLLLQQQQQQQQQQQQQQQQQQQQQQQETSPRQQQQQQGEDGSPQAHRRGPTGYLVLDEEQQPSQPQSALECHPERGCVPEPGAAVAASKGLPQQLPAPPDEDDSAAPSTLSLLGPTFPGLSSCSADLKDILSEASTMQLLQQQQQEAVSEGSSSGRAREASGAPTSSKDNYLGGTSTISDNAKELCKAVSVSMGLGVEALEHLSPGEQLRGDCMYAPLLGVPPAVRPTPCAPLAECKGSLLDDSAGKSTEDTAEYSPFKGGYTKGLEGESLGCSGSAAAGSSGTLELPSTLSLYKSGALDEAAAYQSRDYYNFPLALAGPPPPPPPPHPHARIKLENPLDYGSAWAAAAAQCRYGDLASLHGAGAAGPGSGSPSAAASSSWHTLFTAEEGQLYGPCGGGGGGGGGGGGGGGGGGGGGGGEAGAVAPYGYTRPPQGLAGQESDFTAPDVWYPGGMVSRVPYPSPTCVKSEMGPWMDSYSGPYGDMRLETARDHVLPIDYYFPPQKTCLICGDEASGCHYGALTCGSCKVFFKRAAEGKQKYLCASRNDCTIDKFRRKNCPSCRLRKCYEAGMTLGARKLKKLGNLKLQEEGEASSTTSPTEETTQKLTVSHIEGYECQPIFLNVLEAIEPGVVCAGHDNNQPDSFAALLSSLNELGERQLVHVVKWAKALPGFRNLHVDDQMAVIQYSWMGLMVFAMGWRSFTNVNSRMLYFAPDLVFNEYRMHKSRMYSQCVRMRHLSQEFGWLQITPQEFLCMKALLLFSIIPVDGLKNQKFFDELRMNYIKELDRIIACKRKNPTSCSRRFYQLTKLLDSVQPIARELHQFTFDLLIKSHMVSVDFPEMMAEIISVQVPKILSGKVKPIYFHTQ
Description: Agonist activity at AR (unknown origin) expressed in human LNCaP cells incubated for 20 hrs by luciferase reporter gene assay relative to mifepristone. The format is cell-based. Conditions: human LNCaP cells expressing AR; call rule not given here.

A short description of series [1]: Volume of distribution at steady state in mouse at 0.5 mg/kg, iv. It is filed as ADME, organism-based. Particulars: in vivo, read-out: Vdss.
A short description of series [2]: Volume of distribution at steady state in mini pig at 0.5 mg/kg, iv. The format is ADME, organism-based, Sus scrofa. Conditions: in vivo, read-out: Vdss.
Series [3] is described as follows: Half life in mouse at 0.5 mg/kg, iv. Conditions: in vivo. The format is ADME, organism-based.
The target of series [4] is T2, Mineralocorticoid receptor (Homo sapiens, UniProt P08235).
T2 sequence (P08235 whole entry): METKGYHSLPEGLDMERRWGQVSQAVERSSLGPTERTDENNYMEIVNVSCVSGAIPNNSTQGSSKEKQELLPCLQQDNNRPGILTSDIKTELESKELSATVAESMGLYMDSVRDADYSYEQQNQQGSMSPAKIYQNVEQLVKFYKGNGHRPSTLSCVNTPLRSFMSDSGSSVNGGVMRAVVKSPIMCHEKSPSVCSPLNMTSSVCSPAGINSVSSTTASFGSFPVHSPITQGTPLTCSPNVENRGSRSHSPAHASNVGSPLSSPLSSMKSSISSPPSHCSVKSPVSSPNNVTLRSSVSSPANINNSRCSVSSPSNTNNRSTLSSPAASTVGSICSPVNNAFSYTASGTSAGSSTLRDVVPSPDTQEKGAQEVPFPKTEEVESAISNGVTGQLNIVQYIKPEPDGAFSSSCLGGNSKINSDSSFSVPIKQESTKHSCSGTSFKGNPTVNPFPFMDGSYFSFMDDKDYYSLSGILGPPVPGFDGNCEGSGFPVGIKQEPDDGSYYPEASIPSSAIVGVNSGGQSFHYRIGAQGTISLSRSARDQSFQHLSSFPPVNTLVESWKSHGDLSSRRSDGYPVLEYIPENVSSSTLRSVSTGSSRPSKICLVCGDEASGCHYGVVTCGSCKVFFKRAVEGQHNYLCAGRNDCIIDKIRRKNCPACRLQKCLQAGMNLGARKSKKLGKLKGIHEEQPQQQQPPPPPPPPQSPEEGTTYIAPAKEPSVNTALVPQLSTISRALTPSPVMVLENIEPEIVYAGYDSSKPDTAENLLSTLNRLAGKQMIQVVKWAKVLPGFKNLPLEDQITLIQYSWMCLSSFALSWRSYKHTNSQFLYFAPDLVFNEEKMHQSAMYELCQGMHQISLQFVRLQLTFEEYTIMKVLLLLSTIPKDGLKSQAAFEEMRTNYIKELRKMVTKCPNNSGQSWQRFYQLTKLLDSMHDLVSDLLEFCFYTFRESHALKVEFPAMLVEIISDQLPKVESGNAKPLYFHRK
Description: Antagonist activity at human MR expressed in CHO-K1 cells assessed as reduction in aldosterone-induced protein interaction between MR and its coactivator SRC at 5 uM incubated for 24 hrs by beta-galactosidase based chemiluminescence assay. The format is cell-based. Conditions: cho-k1, 24 h.

Series [5] can be described thus: Antagonist activity at GR in monkey PBMC assessed as reduction in dexamethasone-induced GILZ gene expression incubated for 6 hrs by RT-qPCR method. Conditions: Macaca mulatta. The format is cell-based.
Another series deals with T3, Glucocorticoid receptor (Homo sapiens, UniProt P04150).
T3 sequence (P04150 whole entry): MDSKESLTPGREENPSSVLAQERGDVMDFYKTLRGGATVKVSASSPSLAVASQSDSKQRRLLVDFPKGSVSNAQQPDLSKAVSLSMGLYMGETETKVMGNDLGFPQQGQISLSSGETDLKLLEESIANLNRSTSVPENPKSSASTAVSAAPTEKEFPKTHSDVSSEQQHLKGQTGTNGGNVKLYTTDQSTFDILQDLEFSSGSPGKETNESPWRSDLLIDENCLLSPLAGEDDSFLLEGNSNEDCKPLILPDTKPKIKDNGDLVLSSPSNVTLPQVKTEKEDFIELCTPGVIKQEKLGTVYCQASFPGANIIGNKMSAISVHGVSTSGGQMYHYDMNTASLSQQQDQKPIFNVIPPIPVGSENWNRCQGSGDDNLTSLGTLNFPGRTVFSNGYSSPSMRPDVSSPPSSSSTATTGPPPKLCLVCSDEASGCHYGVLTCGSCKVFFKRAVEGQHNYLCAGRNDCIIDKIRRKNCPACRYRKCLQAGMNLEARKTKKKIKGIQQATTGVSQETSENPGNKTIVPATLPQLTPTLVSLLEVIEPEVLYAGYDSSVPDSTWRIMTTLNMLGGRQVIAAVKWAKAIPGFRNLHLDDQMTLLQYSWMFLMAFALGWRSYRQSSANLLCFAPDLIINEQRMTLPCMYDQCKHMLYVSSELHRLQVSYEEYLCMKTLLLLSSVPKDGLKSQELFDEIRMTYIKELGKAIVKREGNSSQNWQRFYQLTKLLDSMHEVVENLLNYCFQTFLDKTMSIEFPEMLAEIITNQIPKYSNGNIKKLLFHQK
Description: Antagonist activity at GR in human OVCAR5 assessed as reduction in dexamethasone-induced GILZ gene expression incubated for 24 hrs by RT-qPCR method.

`CC(C)N(C)c1ccc([C@H]2C[C@@]3(C)[C@@H](CC[C@@]3(O)C#CC(C)(C)C)[C@@H]3CCC4=CC(=O)CC[C@@H]4[C@H]32)cc1` registered an Emax at 20 h on androgen receptor (AR) of 11%. Moreover, the Vd in series [1] was 5.01 L/kg; in series [2], 7.8 L/kg. This compound gave a half-life in series [3] of 4.83 h. The “inhibition (INH)” value in series [4] is “Not Active”. Further, the negative-log IC50 (pIC50) was 7.83 in series [5] and 7.67 on Glucocorticoid receptor.
